Where two headings read alike, the source gives them in different places. Where a SMILES comes first, the peptide text is derived from it. Bridges are numbered along the chain shown (N, C = ends). [ ]: non-standard residue; d: D form.
Experiments:
L. monocytogenes AgrC [1] = biological target: T1, L. monocytogenes AgrC (Listeria monocytogenes serovar 1/2a, UniProt Q8YAR5); assay: Fluorescence (agr-GFP) reporter agonism assay, ΔagrD reporter strain; type: cell-based; design: Emax: dose or concentration left out as unconfirmed; conditions: for agonism activity (in words): ΔagrD reporter
T1 sequence (Q8YAR5 entry or part of it): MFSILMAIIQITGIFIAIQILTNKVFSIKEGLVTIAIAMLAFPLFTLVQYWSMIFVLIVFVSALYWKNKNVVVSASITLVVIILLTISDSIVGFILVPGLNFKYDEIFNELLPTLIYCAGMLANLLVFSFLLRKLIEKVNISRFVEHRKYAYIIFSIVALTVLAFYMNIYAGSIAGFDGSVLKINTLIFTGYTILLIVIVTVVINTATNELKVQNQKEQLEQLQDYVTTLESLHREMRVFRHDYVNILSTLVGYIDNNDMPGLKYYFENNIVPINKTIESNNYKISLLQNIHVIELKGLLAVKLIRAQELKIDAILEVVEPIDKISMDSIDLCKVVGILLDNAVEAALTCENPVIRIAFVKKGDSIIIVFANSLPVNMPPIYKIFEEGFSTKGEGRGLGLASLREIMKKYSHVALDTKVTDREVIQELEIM
From the text: (§1) Construction of Listeria agr Reporter Strains. A gene block was designed and purchased from Integrated DNA Technologies to contain an EagI recognition site, the PII promoter of the agr system, the 3′ UTR of hly, super folder GFP, and a SaII recognition site. The gene block was digested with EagI and SaII, cloned into an EagI/SaII-cut pAM401 plasmid resulting in the plasmid pAM401-KW1, and then transformed into E. coli XL1-Blue competent cells. The insertion into pAM401 was confirmed using Kapa polymerase and primers DAP337 and DAP338, and additional confirmation via commercial sequencing. Purified plasmid was transformed into the conjugative E. coli S17 strain, which was used to conjugate to EGD-e and EGD-e ΔagrD to generate the agr-GFP reporter strains EGD-e:pAM401-KW1 and EGD-e ΔagrD:pAM401-KW1. Conjugation was verified using primers DAP337 and DAP338.
(§2) Fluorescence reporter assay protocol. For QS (agr) reporter assays, peptide stock solutions in DMSO (1 mM) were serially diluted in DMSO, and 2 μL of solution was added to each well in a black 96-well plate (polystyrene microtiter plate, Costar). Agonism assays utilized the ΔagrD reporter strain, with 2 μL of 100 μM AIP (final concentration 1 μM) as a positive control and 2 μL of DMSO as a negative control. Antagonism assays utilized the EGD-e reporter strain, with 2 μL of DMSO as a positive control. In both assays, wells containing only BHI media served as negative controls for normalization. An overnight culture of bacteria was diluted 1:50 in fresh BHI, then 198 μL were transferred to each well (excluding the media control wells). Plates were then incubated at 37° C. for 24 hours with shaking at 200 rpm. Fluorescence of GFP (excitation at 500 nm, emission at 540 nm) and OD600 of each well was measured using BioTek Synergy 2 plate reader. Measurements were processed by subtracting background fluorescence (BHI media), correcting by OD600, and the normalizing using the 1 μM AIP or the DMSO control for the agonism and antagonism assays, respectively. Non-linear regression curves were fitted to the data sets in GraphPad Prism 7 by using variable slope (four-parameter) dose-response analysis to obtain potency, efficacy, and statistical information about the activity of tested peptides. Each peptide was tested with three technical replicates and three biological replicates. All data derived from fluorescent reporter strains are represented with data points signifying the mean and error bars signifying the standard deviation from all replicates.
Preparation and Validation of Listeria agr Reporter Strains. In order to facilitate profiling the native AIP and its analogs for agr activity, L. monocytogenes agr GFP reporters were designed and constructed as described above (see Materials and General Methods). Briefly, a plasmid containing the agr promoter region upstream of gfp was transformed into wild-type (EGD-e) and ΔagrD L. monocytogenes strains. The wild-type reporter naturally produces its own AIP and is able to activate AgrC, which may subsequently phosphorylate AgrA for productive binding to DNA and triggering the production of GFP (FIG. 1A). The ΔagrD reporter, lacking the ability to produce its own AIP and thereby activate AgrC, is unable to trigger substantial production of GFP. However, adding exogenous AIP to the ΔagrD reporter results in an increase of fluorescence, indicating agr activity has been restored.

[2] = test system: L. monocytogenes EGD-e ΔagrD; assay: Crystal violet biofilm assay, ΔagrD strain (agonists); type: cell-based, Listeria monocytogenes
Procedure: Biofilm assay protocol. Biofilms assays were adapted from previous reports and protocols.^51-52 Overnight cultures of L. monocytogenes EGD-e and ΔagrD were grown in BHI, then diluted 1:100 in LB. For single-point assays, 2 μL of agonists or antagonists at an appropriate concentration were added to wells in a clear 96-well microtiter plates. For dose-response assays, a stock solution of the select peptide were serially diluted in DMSO, then 2 μL of each concentration were transferred to the appropriate wells. Then, 198 μL of bacteria were added to their respective wells, using ΔagrD for agonist wells and EGD-e for antagonist wells. In each plate, additional vehicle controls for baseline biofilm formation of EGD-e and ΔagrD strains (2 μL of DMSO) were included, as well as a media control (200 μL of LB). Plates were incubated at room temperature for 24 hours statically, at which point plates were inverted over a glass waste container and gently shook to remove planktonic bacteria. The wells were gently washed with 200 μL of PBS twice, inverting again over the waste container to remove liquid. Then, 200 μL of 0.1% crystal violet solution (in water) were added to each well and incubated for 30 minutes. The wells were then washed with 200 μL of PBS three more times and left to air dry for 15 minutes. Remaining crystal violet was solubilized by the addition of 100 μL of 95% ethanol in water solution, pipetting up and down to mix, incubated for 10 minutes, then absorbance was read at 595 nm. Absorbance data was processed by normalizing to the EGD-e vehicle control (100%) and the LB media control (0%). Non-linear regression curves were fitted to the data sets in GraphPad Prism 7 by using variable slope (four-parameter) dose-response analysis to obtain potency, efficacy, and statistical information about the activity of tested peptides. Each well was tested with four technical replicates and three biological replicates. All data derived from crystal violet biofilm assays are represented with data points signifying the mean and error bars signifying the standard deviation from all replicates.

L. monocytogenes AgrC [3] = biological target: T1, L. monocytogenes AgrC; assay: Fluorescence (agr-GFP) reporter antagonism assay, wild-type EGD-e reporter strain; type: cell-based
From the text: as §1, §2
Preparation and Validation of Listeria agr Reporter Strains. […] However, adding exogenous AIP to the ΔagrD reporter results in an increase of fluorescence, indicating agr activity has been restored.

[4] = agonism, relative to native AIP
[5] = read-out: Max Activation Observed

| Compound | Emax (L. monocytogenes AgrC [1]; [5]) | agonism activity (in words) (L. monocytogenes AgrC [1]) | Emax (L. monocytogenes AgrC [1]; read-out: Max Activation) | further results |
| --- | --- | --- | --- | --- |
| CSCC[C@H]1NC(=O)[C@H](Cc2ccccc2)NC(=O)[C@@H](NC(=O)[C@H](C)N)CSC(=O)[C@H](C(C)C)NC(=O)[C@H](Cc2ccccc2)NC1=O [AIP M4dM, A-(C-F-dM-F-V)] (H-ACF[dM]FV; thioester 2-C; N-terminus assumed) | 111% | no effect on agonism | – | increase in potency (L. monocytogenes AgrC [1]; [4]): three-fold; biofilm formation of ΔagrD strain (FIG. 9A) [2]: increase biofilm formation; biofilm production compared to vehicle controls ([2]; 10 μM, ΔagrD bacteria): doubled |
| A-(C-F-M-A-V) [AIP F5A] | – | abolished agonism activity | – | Max Activation Observed (L. monocytogenes AgrC [1]; Table 6, normalized with 1 μM AIP (100%) and media (0%) in ΔagrD reporter): 6.37%; antagonism activity (in words) (L. monocytogenes AgrC [3]): no noticeable antagonism |
| CSCC[C@@H]1NC(=O)[C@@H](Cc2ccccc2)NC(=O)[C@@H](NC(=O)[C@H](C)N)CSC(=O)[C@H](C(C)C)NC(=O)[C@H](Cc2ccccc2)NC1=O [AIP F3dF, A-(C-dF-M-F-V)] (H-AC[dF]MFV; thioester 2-C; N-terminus assumed) | 6.63% | largely inactive | – | antagonism activity (in words) (L. monocytogenes AgrC [3]): largely inactive |
| CSCC[C@@H]1NC(=O)[C@H](C)NC(=O)[C@@H](NC(=O)[C@H](C)N)CSC(=O)[C@H](C(C)C)NC(=O)[C@H](Cc2ccccc2)NC1=O [AIP F3A, A-(C-A-M-F-V)] (H-ACAMFV; thioester 2-C; N-terminus assumed) | 9.72% | abolished agonism activity | – | antagonism activity (in words) (L. monocytogenes AgrC [3]): no noticeable antagonism |
| CSCC[C@@H]1NC(=O)[C@H](Cc2ccccc2)NC(=O)[C@@H](NC(=O)[C@H](C)N)CSC(=O)[C@H](C(C)C)NC(=O)[C@H](Cc2c[nH]c3ccccc23)NC1=O [AIP F5W, A-(C-F-M-W-V)] (H-ACFMWV; thioester 2-C; N-terminus assumed) | 85.8% | – | – | – |
| CSCC[C@@H]1NC(=O)[C@H](Cc2c[nH]c3ccccc23)NC(=O)[C@@H](NC(=O)[C@H](C)N)CSC(=O)[C@H](C(C)C)NC(=O)[C@H](Cc2ccccc2)NC1=O [AIP F3W, A-(C-W-M-F-V)] (H-ACWMFV; thioester 2-C; N-terminus assumed) | 60.6% | – | – | – |
| CSCC[C@@H]1NC(=O)[C@H](CC(C)C)NC(=O)[C@@H](NC(=O)[C@H](C)N)CSC(=O)[C@H](C(C)C)NC(=O)[C@H](Cc2ccccc2)NC1=O [AIP F3L, A-(C-L-M-F-V)] (H-ACLMFV; thioester 2-C; N-terminus assumed) | 37.6% | – | – | – |
| CSCC[C@@H]1NC(=O)[C@H](Cc2ccccc2)NC(=O)[C@@H](NC(=O)[C@H](C)N)CSC(=O)[C@@H](C(C)C)NC(=O)[C@H](Cc2ccccc2)NC1=O [AIP V6dV, A-(C-F-M-F-dV)] (H-ACFMF[dV]; thioester 2-C; N-terminus assumed) | 72.9% | – | – | – |
| CC(C)C[C@@H]1NC(=O)[C@H](CO)NC(=O)[C@H](CO)NC(=O)[C@@H](NC(=O)[C@H](C)NC(=O)[C@H](CC(N)=O)NC(=O)[C@@H](NC(=O)CN)C(C)C)CSC(=O)[C@H](Cc2ccccc2)NC1=O [Sa AIP-II, G-V-N-A-(C-S-S-L-F), reference compound] (H-GVNACSSLF; thioester 5-C) | – | – | 12% | – |
| CC(C)C[C@@H]1NC(=O)[C@H](Cc2ccc(O)cc2)NC(=O)[C@H](CO)NC(=O)[C@H](C)NC(=O)[C@@H](NC(=O)[C@@H]2CCCN2C(=O)[C@H](CC(N)=O)NC(=O)[C@H](Cc2ccc(O)cc2)NC(=O)[C@H](CCCCN)NC(=O)[C@H](C)NC(=O)[C@H](C)NC(=O)[C@@H](N)CC(N)=O)CSC1=O [Se AIP-III, N-A-A-K-Y-N-P-(C-A-S-Y-L), reference compound] (H-NAAKYNPCASYL; thioester 8-C) | – | – | 8.73% | – |
| CSCC[C@@H]1NC(=O)[C@H](Cc2ccccc2)NC(=O)[C@@H](NC(=O)[C@H](C)N)CSC(=O)[C@H](C)NC(=O)[C@H](Cc2ccccc2)NC1=O [AIP V6A, A-(C-F-M-F-A)] (H-ACFMFA; thioester 2-C; N-terminus assumed) | 69% | decreased potency and agonism compared to the native AIP | 69% | – |
| CSCC[C@@H]1NC(=O)[C@H](Cc2ccccc2)NC(=O)[C@@H](NC(=O)[C@H](C)N)CSC(=O)[C@H](C(C)C)NC(=O)[C@@H](Cc2ccccc2)NC1=O [AIP F5dF, A-(C-F-M-dF-V)] (H-ACFM[dF]V; thioester 2-C; N-terminus assumed) | 72.3% | maintain some agonism activity | – | loss in potency (L. monocytogenes AgrC [1]; [4]): two orders of magnitude |
| CC(C)C[C@@H]1NC(=O)[C@H](Cc2ccc(O)cc2)NC(=O)[C@H](CC(N)=O)NC(=O)[C@H](CO)NC(=O)[C@@H](NC(=O)[C@@H]2CCCN2C(=O)[C@H](CC(N)=O)NC(=O)[C@H](Cc2ccc(O)cc2)NC(=O)[C@H](CCCCN)NC(=O)[C@H](CO)NC(=O)[C@H](C)NC(=O)[C@@H](N)CC(N)=O)CSC1=O [Se AIP-II, N-A-S-K-Y-N-P-(C-S-N-Y-L), reference compound] (H-NASKYNPCSNYL; thioester 8-C) | – | – | 8.45% | – |
| CC[C@H](C)[C@@H]1NC(=O)[C@H](Cc2ccccc2)NC(=O)[C@H](Cc2ccc(O)cc2)NC(=O)[C@@H](NC(=O)[C@@H](NC(=O)[C@H](CO)NC(=O)[C@@H](N)Cc2ccc(O)cc2)[C@@H](C)O)CSC(=O)[C@H](CCSC)NC1=O [Sa AIP-IV, Y-S-T-(C-Y-F-I-M), reference compound] (H-YSTCYFIM; thioester 4-C) | – | – | 9.81% | agonism or antagonism activity compared to vehicle (FIG. 1B) (L. monocytogenes AgrC [1]; 10 μM, wild-type reporter or ΔagrD reporter): minimal efficacy |
| C[C@H](N)C(=O)N[C@@H](CO)C(=O)N[C@@H](C)C(=O)N[C@H]1CSC(=O)[C@H](Cc2ccccc2)NC(=O)[C@H](Cc2ccc(O)cc2)NC(=O)[C@H](C)NC(=O)[C@H](C)NC1=O [Se AIP-I D1AV3AS6A, A-S-A-(C-A-A-Y-F), reference compound] (H-ASACAAYF; thioester 4-C) | – | – | 12.1% | – |
| CSCC[C@@H]1NC(=O)[C@H](Cc2ccccc2)NC(=O)[C@H](NC(=O)[C@H](C)N)CSC(=O)[C@H](C(C)C)NC(=O)[C@H](Cc2ccccc2)NC1=O [AIP C2dC, A-(dC-F-M-F-V)] (H-A[dC]FMFV; thioester 2-C; N-terminus assumed) | 41% | lost a substantial amount of agonism activity | – | loss in potency (L. monocytogenes AgrC [1]; [4]): three-fold |

From US12116424B2, “Compounds and compositions for modulating Listeria virulence” (priority 2021, dated 2024)
